Assay results published in EP4653001A1, “TREATMENT, DIAGNOSIS AND/OR PROGNOSIS OF MITOCHONDRIAL DISEASES” (Universidad Autónoma de Madrid, priority 2024, dated 2025).

Legend:
[1] = system: PC KO and ACLY KO cells; test: Cell number / viability of PC KO and ACLY KO 143B cells; type: cell-based
Description: All cell lines, 143b, HeLa, U2OS, and transmitochondrial cybrids carrying mutation in CI (ND2), CIII (CytB) or CIV (Cox2) subunits, were maintained in DMEM high glucose (HyClone), 10% FBS and 1% P/S at 37°C with 5% CO2. Mitochondrial mutant cells were cultured with supplementation of 50 µg/mL uridine. The selected cancer cell lines with different levels of malic enzyme (HCC15, KYSE410, CAKI1, J82, MDAMB453, Colo320, NCIH1703) were obtained from the DSMZ-German Collection of Microorganisms and Cell Cultures GmbH and cultured in the same DMEM 10% FBS medium. OCI-Lys3 and RCH-ACV cell lines (cells in suspension), were obtained from the same repository and cultured in RPMI 10% FBS medium. Transfections for gain- and loss-of-function studies were performed according to the manufacturer's instructions using the polyfect reagent (Qiagen, 301107). For cell number and proliferation experiments, cells were seeded in 12 or 6-well plates and allowed to proliferate for the specified durations. Subsequently, cells were trypsinized and quantified using a hemocytometer (NanoEnTek, DHC-N01). Cell viability was quantified using propidium iodide (PI; 50 µg/ml) staining.
Generation of knockout cell lines using CRISPR-Cas9 technology was performed with the lenti-CRISPR v2 vector (Addgene #52961). Guide sequences are: • sgGFPT1, 5-[…]-3 (SEQ ID NO: 1); • sgG6PD, 5-[…]-3 (SEQ ID NO: 2); • sgPHGDH, 5-[…]-3 (SEQ ID NO: 3); • sgMPC1, 5-[…]-3 (SEQ ID NO: 4) • sgPC, 5-CAGGCCCGGAACACACGGA-3 (SEQ ID NO: 5); • sgACLY, 5-[…]-3 (SEQ ID NO: 6); • sgME1, 5-[…]-3 (SEQ ID NO: 7).
To assess the relative contribution of PC and ACLY to cell death phenotype in ETC deficient cells upon PPP inhibition, we treated PC KO and ACLY KO cells with Piericidin, G6PDi or both. A massive reduction in cell viability was observed as early as 48 h in both PC KO and ACLY KO cells after dual inhibition (Figure 3E), which correlated with a significant decrease in the intracellular levels of malate (Figure 3F). […]

[2] = system: mouse cortical neurons; test: L-lactate release in neurons (Lactate-Glo); type: cell-based
Description: Primary cultures of C57BL/6 mouse cortical neurons were prepared from embryos between embryonic days 16.5 and 17.5 and seeded onto pre-treated plates coated with Poly-L-lysine hydrobromide (500 µg/ml). We used Neurobasal medium without D-glucose and sodium pyruvate (ThermoFisher) to modulate D-glucose levels, depending on the experiment (2.5 mM, 5 mM, or 25 mM).
L-lactate levels were measured in mouse cortical neurons using Lactate-Glo™ Assay (Promega, #J5021) following the original protocol.
Increased lactate secretion is considered a good indicator of enhanced glycolytic rates, which is a common feature of ETC-inhibited cells as they switch from OXPHOS to glycolysis to maintain ATP levels. […] We culture 143B cells in the presence of Piericidin for 24 h and PPP activity and lactate release, as a proxy of glycolysis, were measured. As expected, lactate detection in the media was higher in CI-inhibited cells. […] Next, we wonder if in this context, glucose can be overused by glycolysis and therefore diverted away from the PPP. Diseases associated with impaired mitochondrial function negatively impact high energy demanding tissues such as the brain. As such, neurons that are highly sensitive to ETC inhibition also rely strongly on glucose metabolism. Thus, we used mouse cortical neurons to determine the rates of glycolysis and PPP as glucose levels become limiting. Control and Piericidin treated neurons where cultured in media containing supraphysiological (25 mM), physiological (5 mM) or subphysiological concentrations of glucose (2,5 mM). […] Decreased PPP activity under low glucose (2,5 mM) correlated with a rapid decline in NADPH/NADP+ levels in CI-inhibited cells. Conversely, glucose availability had no effect on ATP levels at this timepoint.

[3] = system: astrocytes; test: ATP measurement in astrocytes (ATP Assay Kit); type: cell-based, mouse; conditions: 100 nM, 24 h
Description: Primary cultures of C57BL/6 mouse cortical astrocytes were derived from postnatal day 2-3 pups. They were plated on pre-treated dishes coated with Poly-L-lysine (100 µg/ml) and cultured in DMEM/F-12 (ThermoFisher) supplemented with 15% FBS and 1% penicillin/streptomycin (P/S). After 24 hours of plating, the medium was switched to 10% FBS.
ATP Assay Kit (Abcam, #ab83355) was used to analyze ATP levels. Briefly, Cells were seeded in M24 plates (neurons at 500,000 cells/mL and monolayer density for astrocytes), and for the ATP experiments, three wells per condition were combined. An alternative deproteinization protocol was applied to purify the samples, and a Colorimetric Assay was conducted as outlined in the original protocol. The measurements were obtained using the CLARIOstar Plus plate reader from BMG LABTECH.

Compound: CC=C(C)C(O)C(C)C=C(C)C=CCC(C)=CCc1nc(OC)c(OC)c(O)c1C (stereo not shown) [Piericidin, Piericidin A]
- cell death or cell proliferation ([1]; ACLY KO cells): did not translate into increased cell death or impaired cell proliferation
- proliferation ([1]; PC KO cells, 100 nM, 72 h): proliferated normally
- sensitivity to ETC inhibition (cell number) ([1]; double ablation of PC and ACLY, 100 nM, 72 h): sensitize
- lactate secretion ([2]; 5 mM glucose, trend, did not reach statistical significance): increased lactated secretion
- levels of lactate ([2]; limited glucose availability (2,5 mM), 100 nM, 16 h): preserving
- lactate ([2]; neurons cultured in 25 mM glucose, 100 nM, 16 h): significantly upregulation
- ATP levels [3]: did not cause any alteration
